# Measurements published in patent US10844092B2, “Peptide for promoting regeneration of dentin or dental pulp tissue” (HysensBio Co., Ltd., priority 2016, dated 2020).
# System: Dspp gene
# Test: mRNA level of Dspp gene in MDPC-23 cells by real-time PCR
# Format: cell-based, mouse
# Settings: 48 hours, ratio relative to Dspp mRNA level of control group, triplicate
# Method: The MDPC-23 cells cultured in Example 2-1 were treated with the peptides of the respective groups which were synthesized in Example 1, and cultured for 48 hours. Then, mRNA levels of an odontoblast differentiation marker Dspp gene expressed in the MDPC-23 cells were measured, and a ratio of the measured Dspp mRNA level relative to a Dspp mRNA level measured in a control group was calculated, respectively (Tables 13 to 24). Further, mean values of the Dspp mRNA levels measured in the peptides of respective groups were compared between the groups (FIG. 1B). In this regard MDPC-23 cells which were treated with none of the peptides of the present invention were used as a control group.
# The expression levels of the Dspp gene were measured by RT-PCR and real time PCR analysis: In detail, total RNA was extracted from the MDPC-23 cells with TRIzol reagent. 2 μg of the total RNA, 1 μl of reverse transcriptase, and 0.5 μg oligo (dT) were used to synthesize cDNA. The synthesized cDNA were used in real-time polymerase chain reaction. The real-time polymerase chain reaction was performed on an ABI PRISM 7500 sequence detection system (Applied Biosystems) using the following primers and a SYBR GREEN PCR Master Mix (Takara, Japan). The real-time polymerase chain reaction was performed under conditions of 94° C., 1 min; 95° C., 15 sec 60° C., 34 sec for 40 cycles. Results were analyzed by a comparative cycle threshold (CT) method. In this regard, Gapdh gene was used as an internal control. The experiments were performed in triplicate, and then mean values and standard deviations thereof were taken as measured values.
row,Substance,"mRNA level of Dspp gene, Mean"
1,15 (KYQRKKRSKY; Synthetic construct of novel peptide) [compound 15],1.964
2,43 (KYRQRRKSKY; Synthetic construct of novel peptide) [compound 43],1.669
3,33 (KYRQRKKNKY; Synthetic construct of novel peptide) [compound 33],1.712
4,47 (KYRQKKRSKY; Synthetic construct of novel peptide) [compound 47],1.697
5,2 (KYQRRKRNKY; Synthetic construct of novel peptide) [compound 2],1.646
6,40 (KYRQKRRNKY; Synthetic construct of novel peptide) [compound 40],2.219
7,78 (KYKQKRKSKY; Synthetic construct of novel peptide) [compound 78],2.635
8,92 (KYKQRRRSYK; Synthetic construct of novel peptide) [compound 92],4.211
9,53 (KYRQKKKNYK; Synthetic construct of novel peptide) [compound 53],1.592
10,23 (KYQRKKRNYK; Synthetic construct of novel peptide) [compound 23],2.171
11,68 (KYKQRRRNKY; Synthetic construct of novel peptide) [compound 68],1.432
12,62 (KYRQKRKSYK; Synthetic construct of novel peptide) [compound 62],1.672
13,51 (KYRQRRKNYK; Synthetic construct of novel peptide) [compound 51],1.601
14,25 (KYQRRKKSYK; Synthetic construct of novel peptide) [compound 25],2.371
15,65 (KYKQRKKNKY; Synthetic construct of novel peptide) [compound 65],1.723
16,24 (KYQRKRRNYK; Synthetic construct of novel peptide) [compound 24],2.212
17,86 (KYKQKRKNYK; Synthetic construct of novel peptide) [compound 86],3.705
18,52 (KYRQRRRNYK; Synthetic construct of novel peptide) [compound 52],2.019
19,21 (KYQRKKKNYK; Synthetic construct of novel peptide) [compound 21],1.893
20,32 (KYQRKRRSYK; Synthetic construct of novel peptide) [compound 32],2.219
21,58 (KYRQRKRSYK; Synthetic construct of novel peptide) [compound 58],1.998
22,3 (KYQRRRKNKY; Synthetic construct of novel peptide) [compound 3],1.464
23,85 (KYKQKKKNYK; Synthetic construct of novel peptide) [compound 85],3.670
24,49 (KYRQRKKNYK; Synthetic construct of novel peptide) [compound 49],1.923
25,26 (KYQRRKRSYK; Synthetic construct of novel peptide) [compound 26],2.193
26,82 (KYKQRKRNYK; Synthetic construct of novel peptide) [compound 82],3.361
27,75 (KYKQRRKSKY; Synthetic construct of novel peptide) [compound 75],1.997

row,Substance,"mRNA level of Dspp gene, Mean"
1,44 (KYRQRRRSKY; Synthetic construct of novel peptide) [compound 44],1.793
2,54 (KYRQKRKNYK; Synthetic construct of novel peptide) [compound 54],1.437
3,46 (KYRQKRKSKY; Synthetic construct of novel peptide) [compound 46],1.887
4,5 (KYQRKKKNKY; Synthetic construct of novel peptide) [compound 5],1.639
5,84 (KYKQRRRNYK; Synthetic construct of novel peptide) [compound 84],3.702
6,90 (KYKQRKRSYK; Synthetic construct of novel peptide) [compound 90],4.811
7,36 (KYRQRRRNKY; Synthetic construct of novel peptide) [compound 36],2.319
8,7 (KYQRKKRNKY; Synthetic construct of novel peptide) [compound 7],1.864
9,31 (KYQRKKRSYK; Synthetic construct of novel peptide) [compound 31],2.371
10,91 (KYKQRRKSYK; Synthetic construct of novel peptide) [compound 91],4.362
11,35 (KYRQRRKNKY; Synthetic construct of novel peptide) [compound 35],1.983
12,95 (KYKQKKRSYK; Synthetic construct of novel peptide) [compound 95],4.620
13,70 (KYKQKRKNKY; Synthetic construct of novel peptide) [compound 70],1.927
14,96 (KYKQKRRSYK; Synthetic construct of novel peptide) [compound 96],5.211
15,83 (KYKQRRKNYK; Synthetic construct of novel peptide) [compound 83],3.572
16,71 (KYKQKKRNKY; Synthetic construct of novel peptide) [compound 71],1.879
17,10 (KYQRRKRSKY; Synthetic construct of novel peptide) [compound 10],1.746
18,50 (KYRQRKRNYK; Synthetic construct of novel peptide) [compound 50],1.887
19,76 (KYKQRRRSKY; Synthetic construct of novel peptide) [compound 76],2.351
20,88 (KYKQKRRNYK; Synthetic construct of novel peptide) [compound 88],4.021
21,59 (KYRQRRKSYK; Synthetic construct of novel peptide) [compound 59],1.792
22,19 (KYQRRRKNYK; Synthetic construct of novel peptide) [compound 19],1.931
23,42 (KYRQRKRSKY; Synthetic construct of novel peptide) [compound 42],1.586
24,79 (KYKQKKRSKY; Synthetic construct of novel peptide) [compound 79],2.231
25,66 (KYKQRKRNKY; Synthetic construct of novel peptide) [compound 66],1.627
26,4 (KYQRRRRNKY; Synthetic construct of novel peptide) [compound 4],1.855
